Our source for the IC50 and inhibition values is US5563128A, “Phosphonate derivatives of lipophilic amines” (Rhone-Poulenc Rorer Pharmaceuticals Inc., priority 1995, dated 1996).

The term pIC50 denotes the IC50 on a negative log10 scale, so that one unit is a factor of ten. High values mean a low IC50, low ones a high IC50. The inhibition is the change of the read-out against control, counted positive when it falls.

pIC50: −log10 of the molar value.

The target of the assay is T1, squalene synthase (Rattus norvegicus, UniProt Q02769).
T1 construct: Microsomes are prepared by centrifugation (100,000 g) and then resuspended in the assay buffer; from tissue; host or cells: liver microsomes of male Sprague-Dawley rats (animals from Taconic Farms, Germantown, N.Y.)
T1 sequence (Q02769 1-416): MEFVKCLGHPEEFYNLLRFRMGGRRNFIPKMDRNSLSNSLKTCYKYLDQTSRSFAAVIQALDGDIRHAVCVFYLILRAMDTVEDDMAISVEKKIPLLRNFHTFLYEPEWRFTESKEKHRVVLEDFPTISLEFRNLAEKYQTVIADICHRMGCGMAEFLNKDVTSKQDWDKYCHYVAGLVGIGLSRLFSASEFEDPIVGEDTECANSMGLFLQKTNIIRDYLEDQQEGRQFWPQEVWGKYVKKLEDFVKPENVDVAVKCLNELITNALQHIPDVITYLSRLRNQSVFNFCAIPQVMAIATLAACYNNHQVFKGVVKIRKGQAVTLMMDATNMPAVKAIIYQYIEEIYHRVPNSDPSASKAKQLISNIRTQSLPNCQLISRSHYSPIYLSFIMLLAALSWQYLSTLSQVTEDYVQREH
Kind of assay: Squalene Synthase Inhibition Assay (rat liver microsomes, [3H]FPP). The class given is biochemical, rat (male Sprague-Dawley). Particulars: for pIC50: 50 mM, pH 7.4. Here is the method:
Squalene Synthase Inhibition Assay
I. Preparation of Assay Substances:
Test solutions are prepared fresh in 100% DMSO or dH2 O. Subsequent dilutions are made in the same solvent. Compounds are tested initially at 1 μM (final concentrations).
Potassium Phosphate (50 mM,) pH 7.4, and HEPES (4-(2-hydroxyethyl)-1-piperazineethanesulfonic acid, 50 mM) pH 7.4 stock buffers are prepared and stored at 4° C. until use.
C) Microsomal Enzyme Preparation:
Fresh livers from male Sprague-Dawley rats (Taconic Farms, Germantown, N.Y.) weighing 150-200 g are collected after exsanguination. All subsequent procedures are performed at 4° C. The liver is homogenized in the assay buffer (50 mM, pH 7.4). Cellular fractions are separated as described by Popjak, G. in "Enzymes of sterol biosynthesis in liver and intermediates of sterol biosynthesis," Meth. Enzymol. […] Microsomes are prepared by centrifugation (100,000 g) and then resuspended in the assay buffer. Microsomes are rehomogenized with a motor-driven Teflon pestle to yield a uniform suspension (~30 mg protein/ml), aliquoted, and stored at -80° C. until use.
II. Squalene Synthase Assay
The procedure is a modification of those described by Popjack (ibid) and Poulter et al. in "Squalene synthase. Inhibition by ammonium analogues of carbocationic intermediates in the conversion of presqualene diphosphate to squalene" J. Am. Chem. Soc. […] All components except [^3 H]FPP are preincubated for 10 min. at 37° C. The reaction is initiated by the addition of [^3 H]FPP. […] The tubes are incubated at 65° C. for 30 min. to solubilize proteins. The mixture is extracted with 5 ml petroleum ether for 10 min. After freezing the lower aqueous phase, the organic phase is transferred to glass tubes containing 2 ml distilled water. After washing the lower aqueous phase is frozen and the petroleum ether phase is removed and counted with 10 ml Ready Safe liquid scintillation cocktail using a Beckman LS-9000 scintillation counter. DPM values are adjusted against a blank (no enzyme).
The difference in radioactivity in the presence and absence of the test compound is used to determine the level of inhibition. […] Tallarida, R. J. and Murray, R. B. Manual of pharmacologic calculations with computer programs.
For orientation: Liver microsomes are a subcellular fraction often used to study metabolism.

Molecule `O=P(O)(O)CCCN1CCC=C(c2ccc(-c3nc4ccccc4o3)cc2)C1` showed a pIC50 (HEPES buffer) of 4.77. The inhibition at 10 µM (Phosphate buffer) was determined as 35%.

`O=P(O)(O)CCCN[C@@H]1CC=CC[C@H]1c1ccc(/C=C/c2ccccc2)cc1` (relative stereo): the inhibition at 10 µM (HEPES buffer) is -2%. In addition, where the note is “Phosphate buffer, @ 5 μM”, the inhibition at 5 µM is 61%.

Regarding `COP(=O)(O)C(CCN[C@@H]1CC=CC[C@H]1c1ccc(/C=C/c2ccccc2)cc1)P(=O)(O)OC` (relative stereo), under “HEPES buffer”, the inhibition at 10 µM was 69%.

Where the note is “HEPES buffer”, `O=P(O)(O)C(CCN[C@@H]1CCCC[C@H]1OCc1ccc(-c2nc3ccccc3o2)cc1)P(=O)(O)O` (relative stereo) gave a pIC50 of 7.89.

As to `CCOP(=O)(OCC)C(CCN[C@@H]1CCCC[C@H]1OCc1ccc(-c2nc3ccccc3o2)cc1)P(=O)(OCC)OCC` (relative stereo), the inhibition at 10 µM (HEPES buffer) came out at 14%.
